Data reported in the NIST ThermoML archive (doi:10.1016/j.jct.2017.09.007).
Numbers after ± are expanded uncertainties.

Key:
[1] = molar heat capacity at constant pressure; conditions: 298.15 K, 100 kPa, Small sample (50 mg) DSC
[2] = Molar enthalpy of transition or fusion; conditions: Crystal; DSC
[3] = Crystal; DTA

Row | molar heat capacity at constant pressure ([1]; Liquid) [J/K/mol] | Molar enthalpy of transition or fusion [2] [kcal/mol] | Normal melting temperature [3] [°C] | molar heat capacity at constant pressure ([1]; Crystal) [J/K/mol] | SMILES
1 | 283.07 ± 4.4 | 5.78 ± 0.146 | 1.33 ± 0.53 |  | CCOC(=O)c1ccccc1O [ethyl 2-hydroxybenzoate]
2 |  | 6.57 ± 0.151 | 115.70 ± 0.45 | 233.93 ± 3.6 | CCOC(=O)c1ccc(O)cc1 [ethyl 4-hydroxybenzoate]
3 |  | 6.17 ± 0.146 | 72.23 ± 0.46 | 217.22 ± 3.4 | CCOC(=O)c1cccc(O)c1 [ethyl 3-hydroxybenzoate]
